Laboratory results taken from patent US8552067B2, “Macromolecular conjugates of cystic fibrosis transmembrane conductance regulator protein inhibitors and uses therefor” (The Regents of the University of California, priority 2006, dated 2013).
Counter-ions that a name gives are not always drawn.

Legend:
wildtype CFTR [1] = biological target: T1, wildtype CFTR (Homo sapiens, UniProt P13569); test: Whole-cell patch-clamp on FRT cells stably expressing wildtype CFTR; conditions: after stepping membrane potential to +80 mV; MalH-ConA 250 nM, GlyH-101 5 μM
wildtype CFTR [2] = biological target: T1, wildtype CFTR; test: Apical membrane chloride current (short-circuit current) in FRT epithelial cells expressing human wildtype CFTR
[3] = Water solubility (statement); format: physicochemical
CFTR = biological target: T2, CFTR (Homo sapiens, UniProt P13569); test: Reversibility of CFTR chloride current inhibition after washout; format: cell-based; conditions: after 95-100% inhibition; MalH-ConA over six hours
T2 construct: expressed in transfected cells; host or cells: Fischer rat thyroid (FRT) cells
Method: Chloride current increased slowly with incubation time, with 50% ‘reversal’ at approximately 8 h.

T1 sequence (P13569 whole entry): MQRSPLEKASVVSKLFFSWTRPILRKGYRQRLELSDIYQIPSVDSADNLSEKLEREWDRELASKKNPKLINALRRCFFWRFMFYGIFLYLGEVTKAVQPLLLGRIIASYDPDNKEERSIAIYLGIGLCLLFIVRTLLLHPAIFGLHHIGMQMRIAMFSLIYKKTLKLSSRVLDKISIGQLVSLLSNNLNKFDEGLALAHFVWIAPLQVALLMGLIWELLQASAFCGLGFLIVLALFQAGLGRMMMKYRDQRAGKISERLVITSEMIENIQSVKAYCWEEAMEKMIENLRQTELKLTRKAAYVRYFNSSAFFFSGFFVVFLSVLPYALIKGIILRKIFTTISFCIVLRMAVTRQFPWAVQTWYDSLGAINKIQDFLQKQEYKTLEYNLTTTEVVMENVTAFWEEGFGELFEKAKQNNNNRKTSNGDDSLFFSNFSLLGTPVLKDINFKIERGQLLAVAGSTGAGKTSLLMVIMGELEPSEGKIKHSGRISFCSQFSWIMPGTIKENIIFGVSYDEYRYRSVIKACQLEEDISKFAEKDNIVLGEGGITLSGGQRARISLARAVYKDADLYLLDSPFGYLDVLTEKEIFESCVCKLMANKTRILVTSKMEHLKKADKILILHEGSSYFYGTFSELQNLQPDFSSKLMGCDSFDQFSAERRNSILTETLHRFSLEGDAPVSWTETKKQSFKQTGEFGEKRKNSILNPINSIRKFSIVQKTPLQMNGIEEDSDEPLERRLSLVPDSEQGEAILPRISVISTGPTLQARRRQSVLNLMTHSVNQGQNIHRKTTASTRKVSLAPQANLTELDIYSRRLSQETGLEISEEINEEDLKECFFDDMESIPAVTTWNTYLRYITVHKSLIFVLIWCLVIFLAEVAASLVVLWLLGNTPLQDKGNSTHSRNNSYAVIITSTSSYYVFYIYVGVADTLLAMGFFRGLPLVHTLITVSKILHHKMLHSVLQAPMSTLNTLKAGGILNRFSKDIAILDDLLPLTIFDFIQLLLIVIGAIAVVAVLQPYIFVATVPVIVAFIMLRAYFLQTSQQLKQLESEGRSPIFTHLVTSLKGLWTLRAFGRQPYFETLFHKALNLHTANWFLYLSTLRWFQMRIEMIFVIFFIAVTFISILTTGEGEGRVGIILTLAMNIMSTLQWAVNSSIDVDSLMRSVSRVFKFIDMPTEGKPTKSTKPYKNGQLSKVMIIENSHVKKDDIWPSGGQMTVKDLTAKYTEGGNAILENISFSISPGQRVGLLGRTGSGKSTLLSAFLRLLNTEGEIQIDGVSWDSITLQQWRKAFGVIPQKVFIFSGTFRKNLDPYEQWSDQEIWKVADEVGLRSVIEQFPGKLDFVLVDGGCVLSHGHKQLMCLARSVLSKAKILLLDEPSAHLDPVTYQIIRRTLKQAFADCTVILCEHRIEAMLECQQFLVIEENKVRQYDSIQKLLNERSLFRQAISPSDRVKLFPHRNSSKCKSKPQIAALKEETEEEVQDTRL
T2 sequence (P13569 whole entry): as above

## O=C(CNc1ccc2ccccc2c1)NN=Cc1cc(Br)c(O)c(Br)c1O [GlyH-101, N^2-naphthalenyl-[3,5-[dibromo-2,4-dihydroxyphenyl)methylene]glycine hydrazide]
Wildtype CFTR [1]
  time constant of current decay (single exponential): 8 to 10 ms

## O=C(NN=Cc1cc(Br)c(O)c(Br)c1)C(Nc1ccc2ccccc2c1)C(=O)NNC(=S)Nc1ccc(C=Cc2ccc(N=C=S)cc2S(=O)(=O)O)c(S(=O)(=O)O)c1 (stereo not shown) [MalH-DIDS, 2-naphthalenylamino-[(3,5-dibromo-4-dihydroxyphenyl)methylene]hydrazide [[[4-[2-(4-isothiocyanato-2-sulfophenypethenyl]-2-sulfophenyl]amino]thioxomethyl]hydrazide-propanedioic acid, disodium salt]
Wildtype CFTR [2]
  IC50: 1 µM
Wildtype CFTR [2]; 200 mM mannose
  effect of mannose on CFTR inhibitory potency: did not affect
Wildtype CFTR [2]; 100° C. for 5 min
  effect of heat denaturation on CFTR inhibition activity: did not affect
Wildtype CFTR [2]; EDTA in buffer (chelation of Ca2+ and Mg2+)
  effect of EDTA on CFTR inhibition potency: did not affect
Wildtype CFTR [2]; excess ConA (5 μM) added before compound
  effect of excess unconjugated ConA on CFTR inhibition potency: did not affect
Wildtype CFTR [2]; incubation at either pH 1.5 or pH 5.2
  effect of acid incubation on capability to inhibit CFTR: did not affect
Wildtype CFTR [2]; pronase 8 hours, pH 8, 37° C.
  CFTR inhibition after pronase treatment: not affected
[3]
  water solubility: highly water soluble
CFTR
  reversal of CFTR inhibition after washout and forskolin re-addition: Near-complete and rapid reversal
